# Experimental data reported in the NIST ThermoML archive (doi:10.1021/je1007923).
# ± gives the expanded uncertainty stated by the source.
# Settings: 101.33 kPa, Liquid, Vibrating tube method
smiles,measurement,setting,value
Cc1ccccc1O [2-methylphenol],mass density,308.15 K,1032.73 ± 0.28 kg/m3
Cc1cccc(O)c1 [3-methylphenol],mass density,293.15 K,1033.85 ± 0.09 kg/m3
Cc1ccc(O)cc1 [4-methylphenol],mass density,313.15 K,1018.8 ± 0.08 kg/m3
CCCCCCC [heptane],mass density,298.15 K,679.43 ± 0.23 kg/m3
CCCCCCCC [octane],mass density,298.15 K,698.49 ± 0.23 kg/m3
Oc1ccccc1 [phenol],mass density,313.15 K,1058.3 ± 0.11 kg/m3
